Calls of active or inactive are those of the source. The calls are words filed in the database; no cut-off is given here.
Legend:
Mus musculus [1] = species: Mus musculus; conditions: BALB/c, 40 mg/kg
Description: Inhibition of tumor AIMP2-DX2 expression in BALB/c mouse xenografted with human NCI-H460 cells at 40 mg/kg, ip dosed every other day for 13 days by SDS-PAGE and Western blotting analysis

[2] = Drug level in tumor of BALB/c mouse xenografted with human NCI-H460 cells […] at 40 mg/kg, ip dosed every other day for 13 days; format: ADME, organism-based, Neoplasm; conditions: read-out: Drug uptake
NCI-H460 [3] = test: Antitumor activity against human NCI-H460 cells xenografted in BALB/c mouse assessed as decrease in tumor volume at 40 mg/kg, ip dosed every other day for 13 days; format: functional, organism-based
[4] = Toxicity in BALB/c mouse xenografted with human NCI-H460 cells assessed effect on body weight at 40 mg/kg, ip dosed every other day for 13 days; format: organism-based; conditions: in vivo, 312 h
[5] = Growth inhibition of human WI26 cells incubated for 72 hrs by MTT assay
NCI-H460 [6] = test: Growth inhibition of human NCI-H460 cells incubated for 72 hrs by MTT assay; format: functional; conditions: NCI-H460, 72 h
NCI-H460 [7] = test: Antitumor activity against human NCI-H460 cells xenografted in BALB/c mouse assessed as decrease in tumor size at 40 mg/kg, ip dosed every other day for 13 days; format: functional, organism-based
Calu-6 = test: Growth inhibition of human Calu6 cells incubated for 72 hrs by MTT assay; format: functional; conditions: Calu-6, 72 h
A549 [8] = test: Growth inhibition of human A549 cells incubated for 72 hrs by MTT assay; format: functional; conditions: A549, 72 h
[9] = Toxicity in BALB/c mouse xenografted with human NCI-H460 cells at 40 mg/kg, ip dosed every other day for 13 days; format: organism-based; conditions: in vivo, 312 h
NCI-H460 [10] = test: Effect on AIMP2 DX2 isoform mRNA expression in human NCI-H460 cells at 1.2 to 10 uM by RT-PCR analysis; format: ADME, cell-based; conditions: nci-h460, 10 µM
NCI-H1299 = test: Growth inhibition of human NCI-H1299 cells incubated for 72 hrs by MTT assay; format: functional; conditions: NCI-H1299, 72 h
Mus musculus [11] = test: Effect on tumor AIMP2 expression in BALB/c mouse xenografted with human NCI-H460 cells at 40 mg/kg, ip dosed every other day for 13 days by SDS-PAGE and Western blotting analysis; format: ADME, organism-based; conditions: in vivo, 312 h
NSCLC = test: Growth inhibition of human NSCLC; format: functional
[12] = target: T1, Aminoacyl tRNA synthase complex-interacting multifunctional protein 2 (Homo sapiens) (UniProt Q13155); test: Inhibition of DX2-p14/ARF interaction in human SCLC cells assessed as inhibition of cell growth by MTT assay; format: cell-based
T1 sequence (whole entry): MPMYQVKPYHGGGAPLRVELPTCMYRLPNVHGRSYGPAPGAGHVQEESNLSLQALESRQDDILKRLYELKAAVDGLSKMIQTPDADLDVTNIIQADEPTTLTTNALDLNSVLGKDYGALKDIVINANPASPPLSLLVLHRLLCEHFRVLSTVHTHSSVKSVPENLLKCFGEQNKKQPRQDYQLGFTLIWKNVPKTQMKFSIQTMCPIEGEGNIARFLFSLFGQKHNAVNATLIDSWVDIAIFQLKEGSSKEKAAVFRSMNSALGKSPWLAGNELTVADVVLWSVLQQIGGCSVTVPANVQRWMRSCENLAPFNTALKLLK

A549 [13] = test: Growth inhibition of human A549 cells by MTT assay; format: functional

| SMILES | inhibition (Mus musculus [1]) | concentration at 312 h [2] [µM] | Activity (NCI-H460 [3]) | Activity [4] | growth inhibition (GI) [5] | GI50 (NCI-H460 [6]) [µM] | Activity (NCI-H460 [7]) | GI50 (Calu-6) [µM] | GI50 (A549 [8]) [µM] | Activity [9] | Activity (NCI-H460 [10]) | GI50 (NCI-H1299) [µM] | Activity (Mus musculus [11]) | GI50 (NSCLC) [µM] | GI50 [12] [µM] | GI50 (A549 [13]) [µM] |
| --- | --- | --- | --- | --- | --- | --- | --- | --- | --- | --- | --- | --- | --- | --- | --- | --- |
| COC1CCCN(c2cc(-c3ccc(Cl)cc3)nc(Nc3cccc(OCCN4CCN(C)CC4)c3)n2)C1 (stereo not drawn) | Active | 62.7 | Active | Non-Toxic | Non-Toxic | 0.6 | Active | 4.4 | 2.82 | Non-Toxic | Non-Toxic | 4.18 | Non-Toxic | – | – | – |
| CC1(C)Oc2cc3oc(=O)ccc3cc2C[C@@H]1OC(=O)/C=C/c1ccco1 | – | – | – | – | – | – | – | – | – | – | – | – | – | > 50 | 5 to 10 | – |
| CN1CCN(CCOc2cccc(Nc3nccc(-c4ccc(Cl)cc4)n3)c2)CC1 | Active | 0.088 | Active | Non-Toxic | Non-Toxic | 0.89 | Active | 4.22 | 1.13 | – | Non-Toxic | 5.78 | Non-Toxic | – | – | – |
| CN1CCN(CCOc2cccc(Nc3nc(-c4ccc(Cl)cc4)cc(N4CCOCC4)n3)c2)CC1 | – | – | – | – | – | – | – | – | – | – | – | – | – | – | – | 6.5 |

From ChEMBL document CHEMBL4402586, “2-Aminophenylpyrimidines as Novel Inhibitors of Aminoacyl-tRNA Synthetase Interacting Multifunctional Protein 2 (AIMP2)-DX2 for Lung Cancer Treatment” (J Med Chem, 2020)
